Where two headings read alike, the source gives them in different places.
Columns and labels:
[1] = In-vitro membrane permeability test (Test Example [3]); assay type: in vitro ADME; conditions: human, Caco-2, Caco2 cells, 2 hours
Description: (§1) 10 mM DMSO solution of the test compound was diluted with Hanks buffer (pH 6.5) to 25 μM to make a test compound solution. 300 μL of Apical buffer (Hanks buffer (pH 6.5)) and 1 mL of Basolateral buffer (4.5% BSA-containing Hanks buffer (pH 7.4)) were added to the apical side (mucosal side) and the basolateral side (serosal side), respectively, of Caco2 cells (cells cultured for 6 days after seeding) seeded onto a plate for permeability test (BIOCOAT HTS Caco2 Assay system: BD Biosciences), and preincubated at 37° C. for 20 minutes, followed by measurement of a transepithelial electrical resistance value. Each buffer on the apical side and basolateral side was removed by aspiration. Then, 300 μL of the test compound solution and 1 mL of Basolateral buffer were added to the apical side and the basolateral side, respectively, and incubated at 37° C. for 2 hours with stirring at 60 rpm. Then, sampling was performed from each of the apical side and the basolateral side, and the sample was supplemented with acetonitrile and centrifuged. The test compound (uncharged) in the supernatant was measured using high-performance liquid chromatography/tandem mass spectrometry (LC/MS/MS: Quantum, Thermo Quest).
(§2) A membrane permeability coefficient (Papp) was calculated according to the following equation: Papp(cm/sec.)=(dx/dt)/(A×C0)
(§3) (wherein dx is the amount of the test compound (uncharged) on the basolateral side after incubation, dt is an incubation time, A is the surface area of the cell membrane, and C0 is the initial concentration of the test compound on the apical side.)

Caco2 cells = test: as above; assay type: in vitro ADME; conditions: summary judgement
Description: as §1, §2, §3

human VR1 = target: T1, human VR1 (Homo sapiens, UniProt Q8NER1); test: Inhibition of Ca2+ entry in cells caused by proton (Test Example [1]); assay type: cell-based; conditions: for IC50: rat glioma (C6BU1) cells stably expressing human VR1, proton stimulation, pH 5.7, Ca2+ uptake, Fura 2-AM, read-out: VRI Inhibition IC50
T1 construct: expressed in transfected cells
T1 sequence (Q8NER1 whole entry): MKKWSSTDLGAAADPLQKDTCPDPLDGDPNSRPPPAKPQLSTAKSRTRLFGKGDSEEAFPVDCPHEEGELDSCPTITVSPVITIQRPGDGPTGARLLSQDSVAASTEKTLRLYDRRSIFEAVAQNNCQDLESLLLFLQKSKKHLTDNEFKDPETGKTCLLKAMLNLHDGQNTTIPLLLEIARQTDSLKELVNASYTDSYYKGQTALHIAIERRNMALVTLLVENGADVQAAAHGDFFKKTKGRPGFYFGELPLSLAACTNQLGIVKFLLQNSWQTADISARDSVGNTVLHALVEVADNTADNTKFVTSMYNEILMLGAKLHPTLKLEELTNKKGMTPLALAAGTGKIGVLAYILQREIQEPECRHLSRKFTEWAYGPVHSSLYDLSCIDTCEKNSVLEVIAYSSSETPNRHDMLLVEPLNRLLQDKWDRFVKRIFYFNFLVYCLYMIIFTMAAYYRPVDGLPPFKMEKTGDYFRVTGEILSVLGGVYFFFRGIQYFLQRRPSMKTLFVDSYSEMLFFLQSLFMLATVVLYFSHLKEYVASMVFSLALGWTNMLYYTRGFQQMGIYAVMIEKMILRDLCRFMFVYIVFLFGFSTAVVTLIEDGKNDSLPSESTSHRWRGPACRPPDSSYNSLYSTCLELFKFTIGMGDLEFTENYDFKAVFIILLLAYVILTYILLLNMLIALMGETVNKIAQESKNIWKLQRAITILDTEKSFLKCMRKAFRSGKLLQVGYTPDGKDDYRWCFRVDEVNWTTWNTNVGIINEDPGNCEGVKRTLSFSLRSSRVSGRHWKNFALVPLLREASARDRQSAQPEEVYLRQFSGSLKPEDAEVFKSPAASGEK
Description: An inhibitory effect on VR1 activity was evaluated by measuring Ca^2+ uptake in cells.
Rat glioma (C6BU1) cells stably expressing human VR1 were suspended in 20 mM MES buffer (at pH 6.8, contg. 20 mM 2-morpholinoethanesulfonate (referred to as MES hereinafter), 115 mM NaCl, 5 mM KCl, 1 mM MgCl2 and 14 mM D-glucose) to make a cell density of 1×10^6 cells/mL. A fluorescent dye, Fura 2-AM solution (Dojindo Corporate, Cat. No. 343-05401) was added to the suspension to make a 5 μM concentration thereof. Further, Pluronic F-127 (Wako Pure Chemical Industries, Ltd., Cat. No. P6866) was added to make a 0.1% content thereof. Then, the suspension was incubated at 37° C. for 30 min. The cells were harvested and washed two times with 20 mM MES buffer. The cells were suspended again to make a cell density of 5×10^5 cells/mL. A 500-μL portion of the suspension was taken with a cuvette (MC MEDICAL, INC., Cat. No. SSR3121), to which 10 μL of 20 mM MES buffer containing 250 mM CaCl2 was added to incorporate Ca^2+ into the cells. At the same time, 5 μL of a test compound solution (in a range of 100 μM to 10 nM in DMSO) was also added to provide a final concentration thereof in a range of 1 μM to 0.1 nM. Alternatively, 5 μL of DMSO was added as control to provide a final concentration of 1% DMSO. The suspension was set in an intracellular ionometer (CAF-110; JASCO) 10 min after those additions. The cells were stimulated with protons by addition of 50 μL of 20 mM MES buffer at pH 1.1 to the suspension to set its pH at 5.7. The activity of the test compound was determined as a difference between the minimum of fluorescence intensity before agonist stimulation and its maximum after the stimulation. The value of IC50 was derived from percentage of inhibition by the test compound compared with the control.

[2] = Metabolic stability test in liver S9 (Test Example [2]); assay type: in vitro ADME, human; conditions: for Human liver S9 remaining ratio: human liver S9 2 mg protein/mL, 37° C., 60 minutes of incubation vs 0 minute
Description: Human liver S9 (final concentration: 2 mg protein/mL) was suspended in 100 mM potassium phosphate buffer (at pH 7.4, which contained β-nicotinamide adenine dinucleotide phosphate: 1.3 mM, D-glucose-6-phosphate: 3.3 mM, magnesium chloride: 3.3 mM and glucose-6-phosphate dehydrogenase: 0.45 U/mL) and further mixed with the test compound dissolved in DMSO. The mixture was incubated at 37° C. for 0 and 60 minutes and then supplemented with acetonitrile containing formic acid (final concentration 0.1%). The test compound (uncharged) in a supernatant after centrifugation was measured using high-performance liquid chromatography/mass spectrometry (LC/MS). A remaining ratio (%) was calculated from the obtained measurement value according to the following equation: Remaining ratio (%)=(amount of test compound after 60 minutes of incubation/amount of test compound on 0 minute of incubation)×100

[3] = Stability test in Japanese Pharmacopoeia 1 solution (Test Example [4]); assay type: physicochemical; conditions: for remaining ratio in Japanese Pharmacopoeia 1 solution: CH3CN : Japanese Pharmacopoeia 1 solution 3:7, 0.05 mM, 40° C., after 8 hours vs 0 hour
Description: The test compound was dissolved in a mixed solution of CH3CN and Japanese Pharmacopoeia 1 solution (volume ratio 3:7) and adjusted in a vial for HPLC to a concentration of 0.05 mM. The test compound was measured by HPLC at 40° C. after 0 and 8 hours. The measurement value on 0 hour was defined as 100% to determine the remaining ratio of the test compound after 8 hours.
The “Japanese Pharmacopoeia 1 solution” here represents a solution in which 21 ml of concentrated hydrochloric acid was added to 6 g of sodium chloride and further adjusted to 3 L with distilled water.

[4] = apical (pH 6.5) to basolateral (pH 7.4, 4.5% BSA), 25 μM, 37° C., read-out: membrane permeability Papp
[5] = compared with the compound of Comparative Example 8

| SMILES | Papp A→B at 2 h, 25 μM [1, 4] | membrane permeability (in words) (Caco2 cells) | IC50 (human VR1) | Human liver S9 remaining ratio [2] | Papp A→B at 2 h, 25 μM ([1]; apical to basolateral, read-out: membrane permeability in terms of the Papp values) | remaining ratio in Japanese Pharmacopoeia 1 solution [3] | value of IC50 relative to Comparative Example 8 (human VR1; [5]) | liver S9 remaining ratio relative to Comparative Example 8 [2, 5] | stability in gastric juice (in words) ([3]; inferred from stability in Japanese Pharmacopoeia 1 solution) | metabolic stability in human liver S9 (in words) ([2]; summary judgement) |
| --- | --- | --- | --- | --- | --- | --- | --- | --- | --- | --- |
| Cc1ccc(N2c3cccc(C(=O)Nc4ccc(OC(C)C)c(F)c4)c3OC[C@@H]2CO)nc1 [Comparative Example 11] | 40.3 ×10⁻⁶ cm/s | high membrane permeability | 360 pM | 66.7% |  |  |  |  |  |  |
| Cc1ccc(N2c3cccc(C(=O)Nc4cc(F)c(OCC(F)(F)F)c(F)c4)c3OC[C@@H]2CO)nc1 [Example 1-8, (S)-4-(5-picoline-2-yl)-3-hydroxymethyl-N-[3,5-difluoro-4-(2,2,2-trifluoroethoxy)phenyl]-3,4-dihydro-2H-benzo[1,4]oxazine-8-carboxamide] | 13.6 ×10⁻⁶ cm/s |  | 38 pM |  |  | 101% |  |  |  |  |
| Cc1ccc(N2c3cccc(C(=O)Nc4ccc(C(F)(F)F)nc4)c3OC[C@@H]2CO)nc1 [Comparative Example 8] | 43.1 ×10⁻⁶ cm/s | high membrane permeability | 7000 pM | 62.9% |  |  |  |  |  |  |

More lines, now with the values ahead:

| Papp A→B at 2 h, 25 μM [1, 4] | membrane permeability (in words) (Caco2 cells) | IC50 (human VR1) | Human liver S9 remaining ratio [2] | Papp A→B at 2 h, 25 μM ([1]; apical to basolateral, read-out: membrane permeability in terms of the Papp values) | remaining ratio in Japanese Pharmacopoeia 1 solution [3] | value of IC50 relative to Comparative Example 8 (human VR1; [5]) | liver S9 remaining ratio relative to Comparative Example 8 [2, 5] | stability in gastric juice (in words) ([3]; inferred from stability in Japanese Pharmacopoeia 1 solution) | metabolic stability in human liver S9 (in words) ([2]; summary judgement) | SMILES |
| --- | --- | --- | --- | --- | --- | --- | --- | --- | --- | --- |
| 37.5 ×10⁻⁶ cm/s |  | 150 pM |  | ≥ 30 ×10⁻⁶ cm/s | 100% | about 50 times | about 1.5 times |  |  | Cc1ccc(N2c3cccc(C(=O)Nc4ccc(OCC(F)(F)F)nc4)c3OC[C@@H]2CO)nc1 [Example 1-6, (S)-4-(5-picoline-2-yl)-3-hydroxymethyl-N-[2-(2,2,2-trifluoroethyloxy)pyridine-5-yl]-3,4-dihydro-2H-benzo[1,4]oxazine-8-carboxamide] |
| 28.6 ×10⁻⁶ cm/s |  | 120 pM | 91.3% |  | 62.1% |  |  | inferior stability in gastric juice | excellent metabolic stability | Cc1ccc(N2c3cccc(C(=O)Nc4ccc(OC(C)(C)C)c(F)c4)c3OC[C@@H]2CO)nc1 [Comparative Example 13] |
